Reference: US20260138976A1 (Hoffmann-La Roche Inc., priority 2022, published 2026)

System: primary human T-cells
Assay: Proliferation assay (5 days, CellTiter-Glo, CD3-stimulated T-cells)
Assay type: cell-based
Details: for Emax proliferation (% activation): CD3 condition, normalised to DMSO (neutral) and 20 μM reference compound A1 = 100%; for EC50: Homo sapiens, T-cell, 120 h, CD3-stimulated primary human T-cells, 5 days, CellTiter-Glo, fitted sigmoidal curve, read-out: Tcell Proliferation CD3 EC50
Summary of the method: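 Expanded primary human T-cells, 100 k cells/well, were stimulated with plate-coated CD3 antibody (donor-titrated) and given compound in a 5 or 6 pt dose response from 20 μM or 10 μM final top, 0.2% DMSO final. ATP was read by CellTiter-Glo after 5 days. EC50 and Emax were reported as % of 20 μM reference compound A1.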

Compound	Emax proliferation (% activation)	EC50 [nM]
Cn1ccc(-c2ccc(CN3C(=O)[C@@H](N)CS(=O)(=O)c4cc(F)c(-c5nnc(C(C)(C)C)o5)cc43)cc2)n1 [Example 1, (3R)-3-amino-7-(5-tert-butyl-1,3,4-oxadiazol-2-yl)-8-fluoro-5-[[4-(1-methylpyrazol-3-yl)phenyl]methyl]-1,1-dioxo-2,3-dihydro-1λ^6,5-benzothiazepin-4-one]	73	843
Cc1noc(-c2ccc(CN3C(=O)[C@@H](N)CS(=O)(=O)c4cc(F)c(-c5nnc(C(C)(C)C)o5)cc43)cc2)n1 [Example 2]	143	296
CC(C)Nc1nnc(-c2cc3c(cc2F)S(=O)(=O)C[C@H](N)C(=O)N3Cc2ccc(-c3noc(C(F)(F)F)n3)cc2)o1 [Example 6, (3R)-3-amino-8-fluoro-7-[5-(isopropylamino)-1,3,4-oxadiazol-2-yl]-1,1-dioxo-5-[[4-[5-(trifluoromethyl)-1,2,4-oxadiazol-3-yl]phenyl]methyl]-2,3-dihydro-1λ^6,5-benzothiazepin-4-one]	109	765
CC(C)(C)c1nc(-c2cc3c(cc2F)S(=O)(=O)C[C@H](N)C(=O)N3Cc2ccc(-c3ccc(CO)cc3)nc2)no1 [Example 7, (3R)-3-amino-7-(5-tert-butyl-1,2,4-oxadiazol-3-yl)-8-fluoro-5-[[6-[4-(hydroxymethyl)phenyl]-3-pyridyl]methyl]-1,1-dioxo-2,3-dihydro-1λ^6,5-benzothiazepin-4-one]	97	3520
N[C@H]1CS(=O)(=O)c2cc(F)c(-c3noc(N4CCCC4)n3)cc2N(Cc2ccc(-c3noc(C(F)(F)F)n3)nc2)C1=O [Example 15, (3R)-3-amino-8-fluoro-1,1-dioxo-7-(5-pyrrolidin-1-yl-1,2,4-oxadiazol-3-yl)-5-[[6-[5-(trifluoromethyl)-1,2,4-oxadiazol-3-yl]-3-pyridyl]methyl]-2,3-dihydro-1λ^6,5-benzothiazepin-4-one]	64	3200
Cn1ccc(-c2ccc(CN3C(=O)[C@@H](N)CS(=O)(=O)c4ccc(-c5nnc(C(C)(C)C)o5)cc43)cc2)n1 [Example 21]	63	7060
CC(C)(C)c1nnc(-c2ccc3c(c2)N(Cc2ccc(-c4noc(C(F)(F)F)n4)cc2)C(=O)[C@@H](N)CS3(=O)=O)o1 [Example 23, (3R)-3-amino-7-(5-tert-butyl-1,3,4-oxadiazol-2-yl)-1,1-dioxo-5-[[4-[5-(trifluoromethyl)-1,2,4-oxadiazol-3-yl]phenyl]methyl]-2,3-dihydro-1λ^6,5-benzothiazepin-4-one]	136	316
CC(C)(C)c1nnc(-c2ccc3c(c2)N(Cc2ccc(-n4cc(C(F)(F)F)cn4)cc2)C(=O)[C@@H](N)CS3(=O)=O)o1 [Example 25, (3R)-3-amino-7-(5-tert-butyl-1,3,4-oxadiazol-2-yl)-1,1-dioxo-5-[[4-[4-(trifluoromethyl)pyrazol-1-yl]phenyl]methyl]-2,3-dihydro-1λ^6,5-benzothiazepin-4-one]	131	2930
CC(C)(C)c1nnc(-c2ccc3c(c2)N(Cc2ccc(-n4ccc(C(F)(F)F)n4)cc2)C(=O)[C@@H](N)CS3(=O)=O)o1 [Example 27]	212	252
CC(C)(C)c1nnc(-c2ccc3c(c2)N(Cc2ccc(-n4cnc(C(F)(F)F)c4)cc2)C(=O)[C@@H](N)CS3(=O)=O)o1 [Example 28, (3R)-3-amino-7-(5-tert-butyl-1,3,4-oxadiazol-2-yl)-1,1-dioxo-5-[[4-[4-(trifluoromethyl)imidazol-1-yl]phenyl]methyl]-2,3-dihydro-1λ^6,5-benzothiazepin-4-one]	108	3510
CC(N)(c1nnc(-c2ccc3c(c2)N(Cc2ccc(-c4noc(CC(F)(F)F)n4)cc2)C(=O)[C@@H](N)CS3(=O)=O)o1)C(F)(F)F (stereo partly drawn) [Example 33, (3R)-3-amino-7-[5-(1-amino-2,2,2-trifluoro-1-methyl-ethyl)-1,3,4-oxadiazol-2-yl]-1,1-dioxo-5-[[4-[5-(2,2,2-trifluoroethyl)-1,2,4-oxadiazol-3-yl]phenyl]methyl]-2,3-dihydro-1λ^6,5-benzothiazepin-4-one]	105	3190
CC(C)(C#N)c1nnc(-c2ccc3c(c2)N(Cc2ccc(-c4ccc(C(F)(F)F)cc4)cc2)C(=O)[C@@H](N)CS3(=O)=O)o1 [Example 46]	94	116
CC1(c2nnc(-c3ccc4c(c3)N(Cc3ccc(-c5ccc(C(F)(F)F)cc5)cc3)C(=O)[C@@H](N)CS4(=O)=O)o2)CCO1 (stereo partly drawn) [Example 48, (3R)-3-amino-7-[5-(2-methyloxetan-2-yl)-1,3,4-oxadiazol-2-yl]-1,1-dioxo-5-[[4-[4-(trifluoromethyl)phenyl]phenyl]methyl]-2,3-dihydro-1lambda6,5-benzothiazepin-4-one]	139	321
N[C@H]1CS(=O)(=O)c2ccc(-c3nnc(C4(CO)CCCO4)o3)cc2N(Cc2ccc(-c3ccc(C(F)(F)F)cc3)cc2)C1=O (stereo partly shown) [Example 55]	59	1090
COC(=O)N1CC2CC(c3nnc(-c4ccc5c(c4)N(Cc4ccc(-c6ccc(OC)cc6)cc4)C(=O)[C@@H](N)CS5(=O)=O)o3)(C2)C1 [Example 59, methyl 1-[5-[(3R)-3-amino-5-[[4-(4-methoxyphenyl)phenyl]methyl]-1,1,4-trioxo-2,3-dihydro-1λ^6,5-benzothiazepin-7-yl]-1,3,4-oxadiazol-2-yl]-3-azabicyclo[3.1.1]heptane-3-carboxylate]	103	29
COC(=O)N1CC2CC(c3nnc(-c4ccc5c(c4)N(Cc4ccc(-c6ccc(C(F)(F)F)cc6)cc4)C(=O)[C@@H](N)CS5(=O)=O)o3)(C2)C1 [Example 60, methyl 1-[5-[(3R)-3-amino-1,1,4-trioxo-5-[[4-[4-(trifluoromethyl)phenyl]phenyl]methyl]-2,3-dihydro-1λ^6,5-benzothiazepin-7-yl]-1,3,4-oxadiazol-2-yl]-3-azabicyclo[3.1.1]heptane-3-carboxylate]	110	41.7
COc1ccc(-c2ccc(CN3C(=O)[C@@H](N)CS(=O)(=O)c4ccc(-c5nnc(C6(CO)CCCO6)o5)cc43)cc2)cc1 (stereo partly drawn) [Example 63, (3R)-3-amino-7-[5-[2-(hydroxymethyl)tetrahydrofuran-2-yl]-1,3,4-oxadiazol-2-yl]-5-[[4-(4-methoxyphenyl)phenyl]methyl]-1,1-dioxo-2,3-dihydro-1λ^6,5-benzothiazepin-4-one]	103	1060
COC(F)(c1nnc(-c2ccc3c(c2)N(Cc2ccc(-c4nnc(C5CC5)o4)cc2)C(=O)[C@@H](N)CS3(=O)=O)o1)C(F)(F)F (stereo partly shown) [Example 65]	102	681
N[C@H]1CS(=O)(=O)c2ccc(-c3nnc(N4CCC(F)(F)CC4)o3)cc2N(Cc2ccc(-c3nnc(C(F)(F)F)o3)cc2)C1=O [Example 71, (3R)-3-amino-7-[5-(4,4-difluoro-1-piperidyl)-1,3,4-oxadiazol-2-yl]-1,1-dioxo-5-[[4-[5-(trifluoromethyl)-1,3,4-oxadiazol-2-yl]phenyl]methyl]-2,3-dihydro-1λ^6,5-benzothiazepin-4-one]	129	2870
CC1(Nc2nnc(-c3ccc4c(c3)N(Cc3ccc(-c5noc(C(F)(F)F)n5)cc3)C(=O)[C@@H](N)CS4(=O)=O)o2)CC(F)(F)C1 [Example 72, (3R)-3-amino-7-[5-[(3,3-difluoro-1-methyl-cyclobutyl)amino]-1,3,4-oxadiazol-2-yl]-1,1-dioxo-5-[[4-[5-(trifluoromethyl)-1,2,4-oxadiazol-3-yl]phenyl]methyl]-2,3-dihydro-1λ^6,5-benzothiazepin-4-one]	252	1650
N[C@H]1CS(=O)(=O)c2ccc(-c3nnc(N4CCOC(C(F)(F)F)C4)o3)cc2N(Cc2ccc(-c3ccc(C(F)(F)F)cc3)cc2)C1=O (stereo partly drawn) [Example 73, (3R)-3-amino-1,1-dioxo-7-[5-[2-(trifluoromethyl)morpholin-4-yl]-1,3,4-oxadiazol-2-yl]-5-[[4-[4-(trifluoromethyl)phenyl]phenyl]methyl]-2,3-dihydro-1λ^6,5-benzothiazepin-4-one]	95	828
N[C@H]1CS(=O)(=O)c2ccc(-c3nnc(N4CCOC(C(F)(F)F)C4)o3)cc2N(Cc2ccc(-c3noc(C(F)(F)F)n3)cc2)C1=O (stereo partly drawn) [Example 74, (3R)-3-amino-1,1-dioxo-7-[5-[2-(trifluoromethyl)morpholin-4-yl]-1,3,4-oxadiazol-2-yl]-5-[[4-[5-(trifluoromethyl)-1,2,4-oxadiazol-3-yl]phenyl]methyl]-2,3-dihydro-1λ^6,5-benzothiazepin-4-one]	148	527
N[C@H]1CS(=O)(=O)c2ccc(-c3nnc(N4CCOC(C(F)(F)F)C4)o3)cc2N(Cc2ccc(-c3ccc(C(F)(F)F)cn3)cc2)C1=O (stereo partly drawn) [Example 75, (3R)-3-amino-1,1-dioxo-7-[5-[2-(trifluoromethyl)morpholin-4-yl]-1,3,4-oxadiazol-2-yl]-5-[[4-[5-(trifluoromethyl)-2-pyridyl]phenyl]methyl]-2,3-dihydro-1λ^6,5-benzothiazepin-4-one]	115	1200
